Read-outs that look alike come from different tables or passages of the source.
How the values were obtained:
[1] = system: Heliothis virescens (tobacco budworm); format: in vivo; settings: 10 mL of 300 ppm, 0 equals no feeding
Protocol: Seventy-eight cotton plants were grown in the greenhouse with natural lighting in Sassafras soil in six inch pots. When six true leaves were on the plant (approximately 36 cm tall) the soil was drenched with a solution of Compound 497, 500, 530, 531 or 543. Each of the 5 compounds was dissolved in 2 mL of acetone, and distilled water was added to make 300 ppm solutions of each of the compounds. The pots were divided into six groups (13 plants/treatment), and 10 mL of each solution was applied over the soil surface of each group with one group left untreated. The plants were arranged in the greenhouse in a randomized block design. Each treatment was divided into three groups for sampling at 24, 48, and 96 hours.
Leaves were taken from the base and terminal of the plants. The leaves from the third node and the terminal leaves greater than 15 cm^2 were sampled per plant. One clipped leaf from each plant was cut into four pieces and each piece was placed into an well with one second-instar larvae of Heliothis virescens (tobacco budworm). Larval mortality (% M) was recorded 96 hours after sampling. The percentage of leaf feeding (% FF) was also recorded. Consumption of the leaf in the well was reported as 0-100% (0 equals no feeding).

[2] = system: Colorado potato beetle (Leptinotarsa decemlineata); assay: Test L: soil systemic control of Colorado potato beetle, tomato; format: in vivo; settings: 5 ppm, 5 mL to soil; leaf excised after 4 days; mortality after four days
Protocol: For evaluating soil systemic control of Colorado potato beetle (Leptinotarsa decemlineata), transplanted tomato plants were grown in 6-cm pots for 5 days until they were at the two true leaf stage.
Test compounds were dissolved in 0.25 mL of acetone and diluted with water provide solutions of 5 ppm. Five mL of the appropriate test solution was applied by pipette to the surface of the soil in each pot, followed by 5 mL of water, with eight plants for each compound/rate. The pots were covered and held at 25° C. with 16 hours of light per day. The plants were watered the next day and each day following as needed. After 4 days, one leaf from each plant was excised and placed into a well of a test tray as described in Test H. One 5-day old Colorado potato beetle (Leptinotarsa decemlineata) was placed in each well, the tray was covered and then the test units were held at 25° C. with 16 hours of light per day. Mortality was observed after four days.

[3] = system: tobacco budworm (Heliothis virescens); assay: Test I: soil systemic control of tobacco budworm, cotton; format: in vivo; settings: 10 ppm, 10 mL to pots weekly for four weeks
Protocol: For evaluating soil systemic control of tobacco budworm (Heliothis virescens), cotton plants were grown in sassafras soil in 15-cm pots in aluminum trays. When the plants reached square stage (bud formation on the plant) the plants were treated with the test compounds.
Test compounds were formulated in 0.25 mL of acetone and then diluted with water to provide solutions of 10 ppm. Ten mL of the treatment solutions was added to the pots weekly for four weeks, with four replicates of each treatment rate. One day after the second, third and fourth treatments, 35-50 first instar Heliothis virescens larvae were brushed on each plant with paintbrushes and placed on the terminal area, squares, and bolls. Five days after the last infestation with larvae the plants were rated for damage.

[4] = system: German cockroaches (Blatella germanica); assay: Test Q: German cockroach bait test; format: in vivo; settings: ten cockroaches per cage
Protocol: For evaluating german cockroach (Blatella germanica), Compound 531 was mixed with water, and then blended into a slurry with equal amounts (by weight) of peanut butter. Approximately 1 gram of bait was placed into each test cage. Ten German cockroaches (Blatella germanica) were then placed into each cage, and provided water via a saturated cotton ball. The cages were held indoors, with indirect sunlight, and temperatures ranging from 22 to 31° C. Four test replicates were set up per rate. Evaluations were conducted 1, 2, 3, 5, and 7 days after treatment (DAT) by counting and removing the killed roaches found in each cage.

[5] = system: southern fire ants (Solenopsis xyloni); assay: Test R: fire ant bait test; format: in vivo; settings: fifty ants per cage
Excerpt: For evaluating control of fire ant (Solenopsis xyloni), Compound 531 was mixed with water and then mixed into a slurry with equal amounts (by weight) of Niban granular bait with no active ingredient (supplied by Nisus Corp.). The baits were uniformly sprinkled onto the sand substrate in each test cage. Fifty field-collected southern fire ants (Solenopsis xyloni) were then placed into each cage and provided water via a saturated cotton ball. The cages were held indoors with indirect sunlight and temperatures ranging from 22 to 31° C. Four test replicates were set up per rate. Evaluations were conducted at 1, 3, 7, 10, and 14 days after treatment (DAT) by counting and removing the killed ants found in each cage.

[6] = system: thrips (Frankliniella sp.); assay: Test N: control of thrips, sprayed cotton or soybean plants; format: in vivo; settings: sprayed at 10 ppm; four days after application
Protocol: For evaluating control of thrips (Frankliniella sp.), samples of the test compounds were dissolved in 1 mL of acetone. This solution was then diluted to 100 mL total volume using an aqueous 500 ppm solution of Ortho X-77™ surfactant. Serial dilutions were made to obtain 50 mL of 10 ppm concentration.
The diluted solutions of the test compounds were sprayed to run-off on three-week-old cotton or soybean plants infested with thrips. The plants were placed on a rotating turntable sprayer (10 rpm). Test solutions were applied using a flat fan air-assisted nozzle (Spraying Systems 122440) at 10 psi (69 kPa). Sprayed and dried plants were incased in a plastic cylinder. At four days after application the total number of dead thrips was recorded.

[7] = base leaf sampled 24 h after drench
[8] = base leaf sampled 48 h after drench
[9] = base leaf sampled 96 h after drench
[10] = terminal leaf sampled 24 h after drench
[11] = terminal leaf sampled 48 h after drench
[12] = terminal leaf sampled 96 h after drench

**Q.** Which “% FF (percentage of leaf feeding)” value [1, 7] does the source give for `Cc1cc(Cl)cc(C(=O)NC(C)C)c1NC(=O)c1cc(Cl)nn1-c1ncccc1Cl` [Compound 543] here?
**A.** 30%

**Q.** And the “% FF (percentage of leaf feeding)” value [1, 8]?
**A.** 30%

**Q.** What about the “% FF (percentage of leaf feeding)” value [1, 9] of the same compound?
**A.** 5%

**Q.** And the “% FF (percentage of leaf feeding)” value [1, 10]?
**A.** 20%

**Q.** What about the “% FF (percentage of leaf feeding)” value [1, 11] of the same compound?
**A.** 20%

**Q.** What about the “% FF (percentage of leaf feeding)” value [1, 12] of the same compound?
**A.** 5%

**Q.** For `Cc1cccc(C(=O)NC(C)C)c1NC(=O)c1cc(C(F)(F)F)nn1-c1ncccc1Cl` [Compound 214], which “mortality and feeding inhibition” value [2] is on record?
**A.** excellent levels of mortality and feeding inhibition

**Q.** What about the “protection of squares and bolls” value [3] of the same compound?
**A.** excellent protection of squares and boils including no or minimal sepal damage

**Q.** For `CNC(=O)c1cc(Cl)cc(C)c1NC(=O)c1cc(C(F)(F)F)nn1-c1ncccc1Cl` [Compound 500], which “% FF (percentage of leaf feeding)” value [1, 7] is on record?
**A.** 80%

**Q.** And the “% FF (percentage of leaf feeding)” value [1, 8]?
**A.** 80%

**Q.** What about the “% FF (percentage of leaf feeding)” value [1, 9] of the same compound?
**A.** 30%

**Q.** What about the “% FF (percentage of leaf feeding)” value [1, 10] of the same compound?
**A.** 60%

**Q.** And the “% FF (percentage of leaf feeding)” value [1, 11]?
**A.** 60%

**Q.** And the “% FF (percentage of leaf feeding)” value [1, 12]?
**A.** 30%

**Q.** What does the source list for `Cc1cc(Cl)cc(C(=O)NC(C)C)c1NC(=O)c1cc(Br)nn1-c1ncccc1Cl` [Compound 530]?
**A.** % FF (percentage of leaf feeding) [1, 7]: 80%; % FF (percentage of leaf feeding) [1, 8]: 50%; % FF (percentage of leaf feeding) [1, 9]: 5%; % FF (percentage of leaf feeding) [1, 10]: 50%; % FF (percentage of leaf feeding) [1, 11]: 20%; % FF (percentage of leaf feeding) [1, 12]: 5%

**Q.** What does the source list for `Cc1cc(Cl)cc(C(=O)NC(C)C)c1NC(=O)c1cc(C(F)(F)F)nn1-c1ncccc1Cl` [Compound 497]?
**A.** % FF (percentage of leaf feeding) [1, 7]: 80%; % FF (percentage of leaf feeding) [1, 8]: 100%; % FF (percentage of leaf feeding) [1, 9]: 20%; % FF (percentage of leaf feeding) [1, 10]: 50%; % FF (percentage of leaf feeding) [1, 11]: 50%; % FF (percentage of leaf feeding) [1, 12]: 10%

**Q.** For `CNC(=O)c1cc(Cl)cc(C)c1NC(=O)c1cc(Cl)nn1-c1ncccc1Cl`, which melting point is on record?
**A.** 205 to 207 °C

**Q.** Which melting point does the source give for `CCn1nc(C(F)(F)F)cc1NC(=O)c1c(C)cccc1C(=O)NC(C)C` here?
**A.** 200 to 204 °C

**Q.** Which “Average of Killed Cockroaches” value ([4]; peanut butter bait 400 ppm, 1 DAT) does the source give for `CNC(=O)c1cc(Cl)cc(C)c1NC(=O)c1cc(Br)nn1-c1ncccc1Cl` [Compound 531] here?
**A.** 3.8

**Q.** What about the “Average of Killed Cockroaches” value ([4]; peanut butter bait 400 ppm, 2 DAT) of the same compound?
**A.** 5.8

**Q.** What about the “Average of Killed Cockroaches” value ([4]; peanut butter bait 400 ppm, 3 DAT) of the same compound?
**A.** 6.3

**Q.** And the “Average of Killed Cockroaches” value ([4]; peanut butter bait 400 ppm, 5 DAT)?
**A.** 7

**Q.** And the “Average of Killed Cockroaches” value ([4]; peanut butter bait 400 ppm, 7 DAT)?
**A.** 7

**Q.** What about the “Average of Killed Cockroaches” value ([4]; peanut butter bait 2000 ppm, 1 DAT) of the same compound?
**A.** 6.3

**Q.** And the “Average of Killed Cockroaches” value ([4]; peanut butter bait 2000 ppm, 2 DAT)?
**A.** 8

**Q.** What about the “Average of Killed Cockroaches” value ([4]; peanut butter bait 2000 ppm, 3 DAT) of the same compound?
**A.** 8.8

**Q.** What about the “Average of Killed Cockroaches” value ([4]; peanut butter bait 2000 ppm, 5 DAT) of the same compound?
**A.** 9

**Q.** And the “Average of Killed Cockroaches” value ([4]; peanut butter bait 2000 ppm, 7 DAT)?
**A.** 9

**Q.** What about the “Average of Killed Cockroaches” value ([4]; peanut butter bait 10000 ppm, 1 DAT) of the same compound?
**A.** 9.5

**Q.** And the “Average of Killed Cockroaches” value ([4]; peanut butter bait 10000 ppm, 2 DAT)?
**A.** 9.5

**Q.** What about the “Average of Killed Cockroaches” value ([4]; peanut butter bait 10000 ppm, 3 DAT) of the same compound?
**A.** 9.5

**Q.** And the “Average of Killed Cockroaches” value ([4]; peanut butter bait 10000 ppm, 5 DAT)?
**A.** 9.5

**Q.** What about the “Average of Killed Cockroaches” value ([4]; peanut butter bait 10000 ppm, 7 DAT) of the same compound?
**A.** 9.5

**Q.** What about the “% FF (percentage of leaf feeding)” value [1, 7] of the same compound?
**A.** 60%

**Q.** What about the “% FF (percentage of leaf feeding)” value [1, 8] of the same compound?
**A.** 80%

**Q.** And the “% FF (percentage of leaf feeding)” value [1, 9]?
**A.** 10%

**Q.** And the “% FF (percentage of leaf feeding)” value [1, 10]?
**A.** 40%

**Q.** What about the “% FF (percentage of leaf feeding)” value [1, 11] of the same compound?
**A.** 40%

**Q.** And the “% FF (percentage of leaf feeding)” value [1, 12]?
**A.** 10%

**Q.** What about the “Average of Killed Fire Ants” value ([5]; granular bait 400 ppm, 1 DAT) of the same compound?
**A.** 0.5

**Q.** And the “Average of Killed Fire Ants” value ([5]; granular bait 400 ppm, 3 DAT)?
**A.** 1.3

**Q.** And the “Average of Killed Fire Ants” value ([5]; granular bait 400 ppm, 7 DAT)?
**A.** 40.5

**Q.** And the “Average of Killed Fire Ants” value ([5]; granular bait 400 ppm, 10 DAT)?
**A.** 50

**Q.** What about the “Average of Killed Fire Ants” value ([5]; granular bait 400 ppm, 14 DAT) of the same compound?
**A.** 50

**Q.** And the “Average of Killed Fire Ants” value ([5]; granular bait 2,000 ppm, 1 DAT)?
**A.** 1

**Q.** What about the “Average of Killed Fire Ants” value ([5]; granular bait 2,000 ppm, 3 DAT) of the same compound?
**A.** 2

**Q.** And the “Average of Killed Fire Ants” value ([5]; granular bait 2,000 ppm, 7 DAT)?
**A.** 43

**Q.** What about the “Average of Killed Fire Ants” value ([5]; granular bait 2,000 ppm, 10 DAT) of the same compound?
**A.** 49.8

**Q.** What about the “Average of Killed Fire Ants” value ([5]; granular bait 2,000 ppm, 14 DAT) of the same compound?
**A.** 50

**Q.** And the “Average of Killed Fire Ants” value ([5]; granular bait 10,000 ppm, 1 DAT)?
**A.** 0

**Q.** What about the “Average of Killed Fire Ants” value ([5]; granular bait 10,000 ppm, 3 DAT) of the same compound?
**A.** 2.3

**Q.** What about the “Average of Killed Fire Ants” value ([5]; granular bait 10,000 ppm, 7 DAT) of the same compound?
**A.** 42.8

**Q.** And the “Average of Killed Fire Ants” value ([5]; granular bait 10,000 ppm, 10 DAT)?
**A.** 50

**Q.** And the “Average of Killed Fire Ants” value ([5]; granular bait 10,000 ppm, 14 DAT)?
**A.** 50

**Q.** With `Cc1cccc(C(=O)NC(C)C)c1NC(=O)c1cc(C(F)(F)F)nn1-c1ncccc1C(F)(F)F` as the compound, how does the melting point read?
**A.** 233 to 235 °C

**Q.** With `CNC(=O)c1cc(Br)cc(C)c1NC(=O)c1cc(C(F)(F)F)nn1-c1ncccc1Cl` [Compound 542] as the compound, how does the mortality [6] read?
**A.** at least 90%

**Q.** Which “protection of squares and bolls” value [3] does the source give for `Cc1cccc(C(=O)NC(C)C)c1NC(=O)c1cc(Br)nn1-c1ncccc1Cl` [Compound 283] here?
**A.** excellent protection of squares and boils including no or minimal sepal damage

**Q.** For `CNC(=O)c1cc(Cl)cc(C)c1NC(=O)c1cc(OCC(F)(F)F)nn1-c1ncccc1Cl`, which melting point is on record?
**A.** 215 to 217 °C

**Q.** For `Cc1cc(Br)cc(C(=O)NC(C)C)c1NC(=O)c1cc(Br)nn1-c1ncccc1Cl` [Compound 520], which “protection of squares and bolls” value [3] is on record?
**A.** excellent protection of squares and boils including no or minimal sepal damage

Reference: patent publication US7696233B2, “Method for controlling particular insect pests by applying anthranilamide compounds” (E. I. du Pont de Nemours and Company, priority 2001, dated 2010)
